Literature values in patent publication US11419828B2, “Hair care terpinen 4-ol (T4O) composition for the treatment of demodex mites on scalp” (priority 2021, dated 2022).

Legend:
Demodex mites = details: 75% alcohol, 10% povidone-iodine, erythromycin
[1] = at levels up to 75%
Demodex = details: 38% concentration of terpinen-4-ol, over a period of 4 weeks

## CC[C@H]1OC(=O)[C@H](C)[C@@H](O[C@H]2C[C@@](C)(OC)[C@@H](O)[C@H](C)O2)[C@H](C)[C@@H](O[C@@H]2O[C@H](C)C[C@H](N(C)C)[C@H]2O)[C@](C)(O)C[C@@H](C)C(=O)[C@H](C)[C@@H](O)[C@]1(C)O [erythromycin]
Demodex mites
  Demodex mites' resistance to antiseptic agent: resistant

## OCCCO [Propanediol, Propanediol 1,3]
[1]
  potential to irritate or sensitize skin: low potential to irritate or sensitize skin

## povidone-iodine
Demodex mites
  Demodex mites' resistance to antiseptic agent: resistant

## CCO [alcohol]
Demodex mites
  Demodex mites' resistance to antiseptic agent: resistant

## CC1=CCC(O)(C(C)C)CC1 (centres unmarked) [terpinen-4-ol, Terpinen-4-ol]
Demodex
  reduction of Demodex: reduce Demodex effectively
